# Reference: US6696280B2, “Candida geranylgeranyl-protein transferase polypetide, compositions and methods related thereto” (GPC Biotech, Inc., priority 1996, dated 2004)
# Experiments:
# [1] = tested on: rho1 mutant strains YOC752 (rho1-2), YOC729 (rho1-3), YOC755 (rho1-5); assay: Drug sensitivity of conditional rho1 mutants; type: cell-based, Saccharomyces cerevisiae; conditions: 23° C.
# 1,3-β-glucan synthase = assay: Reconstitution of GS activity in rho1-3 membranes; type: biochemical, Saccharomyces cerevisiae; conditions: 37° C., 1 μg recombinant GTPase, 50 μM GTPγS
# Experimental: FIGS. 6A-6C. GS activity from rho1 mutants (See reference of Example 3). FIG. 6A. GS activity is thermolabile in rho1^ts mutants. Crude extracts were made from cells growing at room temperature, and assayed for GS activity at the indicated temperatures in the presence of 50 μM GTPγS. FIG. 6B. Reconstitution of GS activity in rho 1-3 membranes with recombinant Rho1. GS activity in rho1-3 membrane fractions was measured at 37° C. in the presence of 1 μg of the indicated recombinant GTPase and 50 μM GTPγS (19). FIG. 6C. Reconstituted GS activity requires GTP. GS activity in wild-type membranes or rho1-3 membranes complemented with 1 μg of GST-Rho1 was measured at 37° C. in the presence of the indicated guanine nucleotide (20 μM). Results are expressed as percent activity relative to GTPγS.
# 18. Crude yeast extracts were prepared as described [Y. Kamada et al., (1995) Genes Dev. 9:1559], and stored at −80° C. in lysis buffer supplemented with 33% glycerol. Membrane fractions, where indicated, were obtained from crude extracts and 1,3-β-glucan synthase (GS) activity was measured as described in (2) with the following modifications: UDP-[^3H]glucose was used as the substrate and α-amylase (1 U/40 μl) was added to reaction mixtures to eliminate the contribution of [^3H]glucose incorporation into glycogen. For all GS assays, the mean and standard error for four experiments is shown.
# 19. […]
# PKC1 [2] = molecular target: T1, PKC1 (Saccharomyces cerevisiae, UniProt P24583); assay: PKC1 protein kinase assay with synthetic Bck1 peptide; type: biochemical; conditions: with or without cofactors PS, DAG, Ca2+
# T1 construct: made in house; host or cells: PKC1-HA immunoprecipitated from S. cerevisiae extract; GST-Rho1 from baculovirus-infected Sf9 cells
# T1 sequence (P24583 1-1151): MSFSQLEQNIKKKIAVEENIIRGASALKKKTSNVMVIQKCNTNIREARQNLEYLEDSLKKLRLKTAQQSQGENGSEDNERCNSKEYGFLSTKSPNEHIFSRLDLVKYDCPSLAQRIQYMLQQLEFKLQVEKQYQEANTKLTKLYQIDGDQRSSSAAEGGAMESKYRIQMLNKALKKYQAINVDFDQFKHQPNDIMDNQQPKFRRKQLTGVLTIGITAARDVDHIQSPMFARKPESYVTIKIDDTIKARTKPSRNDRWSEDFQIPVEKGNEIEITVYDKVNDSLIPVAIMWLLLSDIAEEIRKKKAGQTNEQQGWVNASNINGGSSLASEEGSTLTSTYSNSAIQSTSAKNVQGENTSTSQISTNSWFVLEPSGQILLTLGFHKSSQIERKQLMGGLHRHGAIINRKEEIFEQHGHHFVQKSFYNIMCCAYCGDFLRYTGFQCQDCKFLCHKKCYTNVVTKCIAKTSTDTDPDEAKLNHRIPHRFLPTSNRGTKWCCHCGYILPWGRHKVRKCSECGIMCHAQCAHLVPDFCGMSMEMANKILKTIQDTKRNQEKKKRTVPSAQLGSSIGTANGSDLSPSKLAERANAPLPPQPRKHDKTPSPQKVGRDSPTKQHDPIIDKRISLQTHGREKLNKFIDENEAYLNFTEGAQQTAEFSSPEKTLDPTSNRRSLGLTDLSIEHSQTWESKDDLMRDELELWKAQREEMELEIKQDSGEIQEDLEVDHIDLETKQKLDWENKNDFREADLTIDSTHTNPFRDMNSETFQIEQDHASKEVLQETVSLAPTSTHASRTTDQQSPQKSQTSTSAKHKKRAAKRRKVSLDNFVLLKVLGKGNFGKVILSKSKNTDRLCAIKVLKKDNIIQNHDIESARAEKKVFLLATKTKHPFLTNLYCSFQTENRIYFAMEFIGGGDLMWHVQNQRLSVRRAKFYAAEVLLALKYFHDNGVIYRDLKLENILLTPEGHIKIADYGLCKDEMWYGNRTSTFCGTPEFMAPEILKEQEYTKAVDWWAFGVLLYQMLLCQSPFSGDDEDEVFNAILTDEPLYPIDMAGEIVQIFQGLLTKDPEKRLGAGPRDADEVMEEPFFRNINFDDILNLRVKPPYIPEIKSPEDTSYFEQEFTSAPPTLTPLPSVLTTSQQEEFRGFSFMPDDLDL
# Experimental: (§1) FIGS. 4A-4B. Rho1 allows cofactors to activate PKC1. FIG. 4A. Phosphorylation of synthetic Bck1 peptide by PKC1^HA immunoprecipitated from 50 μg of soluble yeast cell extract protein. Recombinant GST-Rho1 or GST-Cdc42 (1 μg) was preloaded with the indicated guanine nucleotide. Cofactors (80 μg/ml PS, 8 μg/ml DAG, and 100 μM CaCl2) were added to the reaction where indicated. Lanes 1 and 2 are control reactions with no GTPase. Mean and standard error for three experiments is shown. FIG. 4B. PS alone is sufficient to stimulate PKC1 fully in the presence of Rho1. Phosphorylation of Bck1 peptide by PKC1^HA in the presence of GTPγS-bound GST-Rho1 and the indicated cofactors. Conditions were as in FIG. 4A, except for PMA (16 ng/ml). Concentrations of PS as low as 8 μg/ml fully activated PKC1 (data not shown).
# (§2) Yeast extract preparation, immunoprecipitation, immunodetection and protein kinase assays of Mpk1^HA were conducted as described previously (4). Preparation of cell extracts and immunoprecipitations for experiments with ^HARho1 were carried out as in (4) with some modifications. Lysis buffer without ρ-nitrophenyl phosphate and with 1% NP-40 was used. The extract (700 μg protein) was precleared by incubation with 20 μl of a 50% suspension of protein A-sepharose for 1 h prior to immunoprecipitation to eliminate non-specific binding of proteins to immunecomplexes. Beads were boiled in SDS-PAGE sample buffer, and samples were applied to 7.5% (for PKC1 blots) or 15% (for ^HARho1 blots) SDS-PAGE gels. For PKC1 kinase assays, all as described previously (5), except for the addition of recombinant GTPases (see below). A synthetic peptide corresponding to the sequence surrounding Ser939 of Bck1, a phosphorylation site for PKC 1, was used as substrate in PKC 1 kinase assays (5).
# (§3) Recombinant Rho1 and Cdc42. Recombinant GST-Rho 1 and GST-Cdc42 were expressed and purified from baculovirus-infected insect (Sf9) cells, as described (23). For in vitro association with PKC1^HA, GST-Rho1 was not eluted from the glutathione agarose beads used for purification. GST-Rho1-bound beads were incubated with cell extract in immunoprecipitation buffer (4) for 5 h at 4° C., followed by 3 washes with this buffer. For use in PKC1^HA protein kinase assays, GST-Rho1 and GST-Cdc42 were eluted from the beads with reduced glutathione.
# PKC1 [3] = molecular target: T2, PKC1 (Saccharomyces cerevisiae, UniProt P24583); assay: as above; type: biochemical; conditions: for Stimulation of PKC1 by cofactor: in the presence of GTP-bound GST-Rho1
# T2 construct: made in house; host or cells: PKC1-HA immunoprecipitated from S. cerevisiae extract; GST-Rho1 from baculovirus-infected Sf9 cells
# Experimental: as §1, §2, §3
# T2 sequence (P06780 2-206, one chain of several): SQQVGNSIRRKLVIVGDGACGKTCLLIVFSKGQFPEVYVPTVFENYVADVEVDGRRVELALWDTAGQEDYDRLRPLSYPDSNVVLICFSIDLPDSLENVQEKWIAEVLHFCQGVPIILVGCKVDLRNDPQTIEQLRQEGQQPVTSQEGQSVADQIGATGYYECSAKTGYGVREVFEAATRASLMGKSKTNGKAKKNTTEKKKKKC
# CaGGTase = assay: Km determination, prenylation (TCA precipitation) assay; type: biochemical, Candida
# Experimental: Briefly, a DEAE FF column is used for the first chromatographic step. The fractions from the columns in the purification are assayed for both GGTase and Ftase. For GGTase, 0.2 μM CaRho and 0.5 μM GGPP are used. For the FTase assay, 0.5 μM N-ras and 0.5 μM FPP are used. Both reactions are for 20-30 minutes at 37° C. The GGTase activity and FTase activity overlapped on the intial chromatography step, although the FTase activity was slightly shifted to the later fractions. The majority of the GGTase activity is pooled and then run on a SourceQ column, which separates the FTase and GGTase activities.
# The fractions from the columns in the purification are being assayed for both GGtase and FTase. For GGTase 0.2 uM CaRho and 0.5 uM GGPP are used. For the FTase assay 0.5 uM N-ras and 0.5 uM FPP are used. Both reactions are for 20-30 minutes at 37°.
# The second column (20 mL) Source Q separated the FTase from the GGTase The salt gradient was stretched out for 10 column volumes and 3.5 mL fractions were collected. Fraction 16 and 17 were used for Km and IC50 studies by Marc P.
compound,measurement,setting,value
echinocandin B,Sensitivity of rho1 mutants to drug,[1],hypersensitivity
GST-Rho1: recombinant glutathione-S-transferase-Rho1 fusion purified from Sf9 insect cells,Restoration of GS activity,"1,3-β-glucan synthase",restored fully
same,Stimulation of PKC1 activity by recombinant GTPase,PKC1 [2],did not stimulate PKC1 activity alone
O=S(=O)(O)c1cc(Nc2nc(Nc3ccccc3)nc(N(CCO)CCO)n2)ccc1/C=C/c1ccc(Nc2nc(Nc3ccccc3)nc(N(CCO)CCO)n2)cc1S(=O)(=O)O [Calcofluor white],Sensitivity of rho1 mutants to drug,[1],hypersensitivity
diacylglycerol [DAG],Stimulation of PKC1 by cofactor,PKC1 [3],No additional stimulation
"huRhoA: human RhoA GTPase, protein substrate",Km Values,CaGGTase,Nor is human RhoA a substrate
phosphatidylserine,Stimulation of PKC1 by cofactor,PKC1 [3],strongly activated
same,Concentration of PS that fully activated PKC1,"PKC1 [3]; in the presence of GTPγS-bound GST-Rho1, data not shown",≤ 8 µg/mL
[Ca+2] [Ca^2+],Stimulation of PKC1 by cofactor,PKC1 [3],No additional stimulation
"CCCCCCCCCCCCCC(=O)O[C@@H]1[C@@H](C)[C@@]2(O)[C@@H](C=C(CO)C[C@]3(O)C(=O)C(C)=C[C@@H]23)[C@@H]2C(C)(C)[C@]12OC(C)=O [PMA, phorbol myristate acetate]",Stimulation of PKC1 by cofactor,PKC1 [3],No additional stimulation
